What was measured:
Test in all cases: relative viability (nuclei count vs DMSO), 5 days (fraction); higher = more cells survive
[1] = compound: C1=CC=C(C(=C1)C2=CC=C(C=C2)C3=CSC4=C3C(=C(C(=O)N4)C#N)O)O + COc1cc2c(Oc3ccc(NC(=O)C4(C(=O)Nc5ccc(F)cc5)CC4)cc3F)ccnc2cc1OCCCN1CCOCC1 [Foretinib] (partner 0.25 µM)
Outline: (§1)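 Medians of duplicate plates are given as relative viability. That measure is the nuclei count in treated wells divided by the count in vehicle wells. Counts were taken on 4× images of lung cancer cell lines in 1536-well plates, 5 days after pin-tool dosing the day after seeding with one drug alone or a fixed anchor-drug dose plus five library-drug doses (not always all listed) in √10 steps.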

Ricolinostat + AZD7762 = compound: O=C(CCCCCCNC(=O)c1cnc(N(c2ccccc2)c2ccccc2)nc1)NO [Ricolinostat] + NC(=O)Nc1cc(-c2cccc(F)c2)sc1C(=O)N[C@H]1CCCNC1 [AZD7762] (partner 0.2 µM)
Outline: as §1

TGX 221 + Foretinib = compound: CC1=CN2C(=O)C=C(N=C2C(=C1)C(C)NC3=CC=CC=C3)N4CCOCC4 [TGX 221] + COc1cc2c(Oc3ccc(NC(=O)C4(C(=O)Nc5ccc(F)cc5)CC4)cc3F)ccnc2cc1OCCCN1CCOCC1 [Foretinib] (partner 0.25 µM)
Outline: as §1

TGX 221 + Luminespib = compound: CC1=CN2C(=O)C=C(N=C2C(=C1)C(C)NC3=CC=CC=C3)N4CCOCC4 [TGX 221] + CCNC(=O)c1noc(-c2cc(C(C)C)c(O)cc2O)c1-c1ccc(CN2CCOCC2)cc1 [Luminespib] (partner 0.01 µM)
Outline: as §1

Cell Line | relative viability ([1]; first compound 0.08 µM) | relative viability ([1]; first compound 0.253 µM) | relative viability ([1]; first compound 0.8 µM) | relative viability ([1]; first compound 2.53 µM) | relative viability ([1]; first compound 8 µM) | relative viability (Ricolinostat + AZD7762; first compound 0.08 µM) | relative viability (Ricolinostat + AZD7762; first compound 0.253 µM) | relative viability (Ricolinostat + AZD7762; first compound 0.8 µM) | relative viability (Ricolinostat + AZD7762; first compound 2.53 µM) | relative viability (TGX 221 + Foretinib; first compound 0.08 µM) | relative viability (TGX 221 + Foretinib; first compound 0.253 µM) | relative viability (TGX 221 + Foretinib; first compound 0.8 µM) | relative viability (TGX 221 + Foretinib; first compound 2.53 µM) | relative viability (TGX 221 + Foretinib; first compound 8 µM) | relative viability (TGX 221 + Luminespib; first compound 0.08 µM) | relative viability (TGX 221 + Luminespib; first compound 0.253 µM) | relative viability (TGX 221 + Luminespib; first compound 0.8 µM) | relative viability (TGX 221 + Luminespib; first compound 2.53 µM) | relative viability (TGX 221 + Luminespib; first compound 8 µM)
HCC-827 | 1.11 | 1.04 | 1.04 | 1.06 | 0.969 | 0.171 | 0.223 | 0.167 | 0.219 | 1.08 | 1.08 | 1.07 | 0.927 | 0.904 | 0.475 | 0.444 | 0.872 | 0.426 | 0.451
HOP-62 | 1.15 | 1.01 | 1.17 | 1.28 | 1 | 0.352 | 0.521 | 0.53 | 0.277 | 1.09 | 1.1 | 1.05 | 1.15 | 1.08 | 0.919 | 0.951 | 0.981 | 0.88 | 0.632
IA-LM | 0.893 | 1.35 | 1.01 | 1.41 | 1.14 |  |  |  |  | 1.18 | 1.04 | 1.08 | 1.22 | 1.11 |  |  |  |  | 
LC-2-ad | 0.877 | 1.06 | 0.96 | 0.968 | 0.753 | 0.842 | 0.883 | 0.82 | 0.745 | 0.865 | 0.85 | 0.95 | 0.825 | 0.751 | 0.957 | 0.941 | 1.18 | 1.01 | 0.907
LCLC-97TM1 | 0.827 | 1.16 | 1.01 | 1.03 | 0.91 |  | 0.378 | 0.265 | 0.34 | 0.949 | 1.01 | 0.904 | 0.959 | 0.802 | 0.732 | 0.63 | 0.821 | 0.602 | 0.834
LCLC-103H | 0.78 | 0.735 | 0.93 | 0.698 | 0.587 | 0.694 | 0.754 | 0.749 | 0.626 | 0.698 | 0.761 | 0.883 | 0.724 | 0.619 | 1.01 | 0.988 | 1.02 | 0.806 | 0.763
NCI-H520 | 0.515 | 0.711 | 0.835 | 0.848 | 0.627 |  |  |  |  | 0.582 | 0.544 | 0.509 | 0.372 | 0.427 | 0.23 | 0.196 | 0.188 | 0.205 | 0.211
NCI-H522 |  |  |  |  |  | 0.877 | 0.838 | 0.853 | 0.822 |  |  |  |  |  | 1.09 | 1.04 | 1.01 | 1.11 | 1.42
NCI-H661 | 1.3 | 1.06 | 0.898 | 1.02 | 0.99 |  |  |  |  | 1.03 | 0.987 | 1.02 | 1.09 | 0.82 | 0.906 | 0.919 | 0.899 | 0.956 | 0.939
NCI-H1299 | 1.1 | 1.07 | 1.09 | 1.11 | 1.17 |  |  |  |  | 1.12 | 1.06 | 1.1 | 1.13 | 1.07 |  |  |  |  | 
NCI-H1563 | 0.972 | 0.862 | 0.947 | 0.861 | 0.927 |  |  |  |  | 0.855 | 0.875 | 0.936 | 0.836 | 0.68 | 0.499 | 0.525 | 0.538 | 0.515 | 0.523
NCI-H1623 | 0.915 | 0.971 | 0.864 | 0.889 | 0.798 |  |  |  |  | 0.815 | 0.858 | 0.827 | 0.826 | 0.77 | 0.427 | 0.457 | 0.471 | 0.463 | 0.438
NCI-H1648 |  |  |  |  |  |  | 0.651 | 0.524 | 0.494 |  |  |  |  |  |  |  |  |  | 
NCI-H1650 | 0.795 | 1.52 | 1.31 | 1.22 | 0.935 |  |  |  |  | 0.953 | 0.751 | 1.05 | 0.922 | 0.639 | 0.197 | 0.191 | 0.201 | 0.169 | 0.185
NCI-H1703 | 0.284 | 0.355 | 0.35 | 0.363 | 0.409 |  | 0.132 |  | 0.11 | 0.328 | 0.275 | 0.335 | 0.317 | 0.337 |  |  |  |  | 
NCI-H2009 | 1.18 | 1.24 | 1.3 | 1.28 | 1.19 |  |  |  |  | 1.12 | 1.14 | 1.25 | 1.14 | 0.789 | 1.05 | 1.02 | 1.09 | 1.02 | 0.665
NCI-H2023 | 0.838 | 0.939 | 0.763 | 0.903 | 0.76 |  |  |  |  | 0.879 | 0.584 | 0.797 | 0.724 | 0.445 | 0.711 | 0.555 | 0.685 | 0.603 | 0.386
NCI-H2228 | 0.764 | 0.871 | 0.96 | 0.847 | 0.588 |  |  |  |  | 0.738 | 0.853 | 0.787 | 0.754 | 0.72 | 0.123 | 0.146 | 0.108 | 0.136 | 0.153
SK-LU-1 | 0.886 | 0.733 | 0.871 | 0.947 | 0.734 |  |  |  |  | 0.808 | 0.703 | 0.768 | 0.63 | 0.657 | 0.189 | 0.191 | 0.201 | 0.205 | 0.181
SK-MES-1 | 0.885 | 1.02 | 0.905 | 0.852 | 0.837 |  |  |  |  | 0.994 | 0.733 | 0.863 | 0.75 | 0.558 | 0.664 | 0.721 | 0.639 | 0.324 | 0.229
SW 1573 | 0.836 | 0.864 | 0.884 | 0.916 | 0.837 |  |  |  |  | 0.889 | 0.881 | 0.975 | 0.822 | 0.851 | 0.211 | 0.353 | 0.247 | 0.221 | 0.278
UMC-11 | 0.809 | 0.855 | 1.15 | 1.19 | 0.858 |  |  |  |  | 0.934 | 0.932 | 1 | 1.06 | 1.03 | 1.03 | 0.957 | 1.03 | 1.04 | 1.09
